# Measurements published in US20070270421A1, “Novel pyridine Derivative and Pyrimidine Derivative (1)” (priority 2004, published 2007).
# How the values were obtained:
# [1] = biological target: T1, HGFR (His6-HGFR cytoplasmic domain) (Homo sapiens, UniProt P08581); test: Inhibitory activity against HGFR tyrosine kinase activity (HTRF); type: biochemical; conditions: biotin-poly(GT), ATP, 30° C. 10 min, read-out: IC50 (concentration necessary to inhibit HGFR kinase activity by 50%)
# T1 construct: made in house; host or cells: Spodoptera frugiperda Sf9 insect cells (baculovirus, pFastBac-HT)
# Procedure, shortened: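 Baculovirus/Sf9-expressed N-terminal His6-tagged HGFR cytoplasmic domain (from Lys974), Ni-NTA purified, phosphorylated biotin-poly(GT) in Hepes pH 7.4 with MgCl2/MnCl2. ATP added as 4 μM solution; 10 min at 30° C., stopped with EDTA. Phosphotyrosine product detected by HTRF.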
# [2] = system: Human pancreatic cancer cells (SUIT-2); test: Inhibitory activity against migration of human pancreatic cancer cells (SUIT-2); type: cell-based; conditions: SUIT-2, Transwell, HGF stimulation, 24 hrs, read-out: IC50 (concentration necessary to inhibit the cell migration activity by 50%)
# Description: Human pancreatic cancer cells (SUIT-2) were suspended in a 1% FBS-containing RPMI1640 medium (purchased from Sigma) to prepare a cell suspension (8×10^5 cells/ml). To the lower compartment of Transwell (purchased from COSTAR, Production No. 3422) was added 600 μl of a 1% FBS-containing RPMI1640 medium. To the upper compartment were added 50 μl of the above cell suspension and 25 μl of the test substance dissolved in dimethyl sulfoxide (diluted with the 1% FBS-containing RPMI1640 medium), followed by culturing in a 5% CO2 incubator (37° C.) for 1 hr. After the culture, to the upper compartment of each Transwell was added 25 μl of human recombinant hepatocyte growth factor (HGF, purchased from Wako Pure Chemical Industry, Production No. 22949) diluted to 280 ng/ml with a 1% FBS-containing RPMI1640 medium, followed by culturing in a 5% CO2 incubator (37° C.) for 24 hrs. The cells adhering to the lower compartment of each well were counted in five fields by a phase contrast microscope (200×) to calculated an average adhering cell number. While defining the average adhering cell number of a well supplied with […] and no test substance as 100% cell migration activity and the average adhering cell number of a well supplied with no HGFR and no test substance as 0% cell migration activity, the cell migration activity percent (%) was calculated for each well. The concentration of the test substance was varied at several levels to calculate the cell migration activity percent (%) for respective cases, and to calculate the concentration of the test substance necessary to inhibit the cell migration activity by 50% (IC50).
# T1 sequence (P08581 956-1390 limits assumed): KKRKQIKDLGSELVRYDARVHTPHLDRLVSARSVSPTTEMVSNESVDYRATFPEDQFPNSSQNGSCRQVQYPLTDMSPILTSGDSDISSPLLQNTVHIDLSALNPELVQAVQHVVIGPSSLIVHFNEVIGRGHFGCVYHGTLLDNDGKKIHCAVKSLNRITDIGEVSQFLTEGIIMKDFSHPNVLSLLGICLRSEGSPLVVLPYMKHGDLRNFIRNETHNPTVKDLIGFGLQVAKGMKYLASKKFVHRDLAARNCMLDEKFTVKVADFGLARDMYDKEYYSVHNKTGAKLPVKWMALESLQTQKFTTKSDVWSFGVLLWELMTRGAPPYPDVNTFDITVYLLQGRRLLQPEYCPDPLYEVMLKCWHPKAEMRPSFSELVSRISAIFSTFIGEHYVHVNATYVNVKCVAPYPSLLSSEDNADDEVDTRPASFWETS
IC50 [1],IC50 [2],Structure (SMILES)
0.088 µM,–,"O=C(Cc1ccccc1)NC(=S)Nc1ccc(Oc2ccnc(NC(=O)N3CCOCC3)c2)c(Cl)c1 [Example 11, 4-{2-Chloro-4-[3-(2-phenylacetyl)thioureido]phenoxy}-2-[(morpholin-4-yl)carbonylamino]pyridine]"
0.073 µM,–,"CN1CCC(N(C)C(=O)Nc2cc(Oc3ccc(NC(=O)NC(=O)Cc4ccccc4)cc3F)ccn2)CC1 [Example 52, 3-{4-[2-Fluoro-4-(3-phenylacetylureido)phenoxy]pyridin-2-yl]-1-methyl-1-(1-methylpiperidin-4-yl)urea]"
0.053 µM,–,"O=C(Cc1ccc(F)cc1)NC(=S)Nc1ccc(Oc2ccnc(NC(=O)N3CCCC3)c2)cc1 [Example 9, Pyrrolidine-1-carboxylic acid [4-(4-{3-[2-(4-fluorophenyl)acetyl]thioureido}phenoxy)pyridin-2-yl]amide]"
0.056 µM,0.038 µM,"O=C(CC(=O)Nc1ccc(Oc2ccnc(NC(=O)N3CCCC3)c2)c(F)c1)Nc1ccc(F)cc1 [Example 56, N-(4-Fluorophenyl)-N′-(3-fluoro-4-{2-[(pyrrolidine-1-carbonyl)amino]pyridin-4-yloxy}phenyl)malonamide]"
0.096 µM,–,"Cc1cc(Oc2ccnc(NC(=O)N3CCC(N4CCCC4)CC3)c2)ccc1NC(=O)CC(=O)Nc1ccc(F)cc1 [Example 85, N-(4-Fluorophenyl)-N′-[2-methyl-4-(2-{[(4-pyrrolidin-1-yl)piperidine-1-carbonyl]amino}pyridin-4-yloxy)phenyl]malonamide]"
0.11 µM,0.0032 µM,"O=C(Cc1ccc(F)cc1)NC(=S)Nc1ccc(Oc2ccnc(NC(=O)N3CCCC3)c2)c(F)c1 [Example 13, 4-(2-Fluoro-4-{3-[2-(4-fluorophenyl)acetyl]thioureido}phenoxy)-2-[(pyrrolidin-1-yl)carbonylamino]pyridine]"
0.013 µM,–,"O=C(CC(=O)Nc1ccc(Oc2ccnc(NC(=O)C3CC3)c2)cc1F)Nc1ccc(F)cc1 [Example 77, N-(4-Fluorophenyl)-N′-{4-[2-(cyclopropanecarbonylamino)pyridin-4-yloxy]-2-fluorophenyl}malonamide]"
0.056 µM,–,"O=C(Cc1ccccc1)NC(=O)Nc1ccc(Oc2ccnc(NC(=O)N3CCOCC3)c2)c(F)c1 [Example 48, Morpholine-4-carboxylic acid {4-[2-fluoro-4-(3-phenylacetylureido)phenoxy]pyridin-2-yl}amide]"
0.071 µM,0.05 µM,"O=C(Cc1ccc(F)cc1)NC(=S)Nc1ccc(Oc2cc(NC(=O)N3CCCC3)ncn2)c(F)c1 [Example 3, Pyrrolidine-1-carboxylic acid [6-(2-fluoro-4-{3-[2-(4-fluorophenyl)acetyl]thioureido}phenoxy)pyrimidin-4-yl]amide]"
0.054 µM,–,"Cc1cc(NC(=S)NC(=O)Cc2ccc(F)cc2)ccc1Oc1ccnc(NC(=O)N2CCOCC2)c1 [Example 24, Morpholine-4-carboxylic acid (4-{2-methyl-4-[3-(4-fluorophenyl)acetylthioureido]phenoxy}pyridin-2-yl)amide]"
0.075 µM,–,"CN1CCC(N(C)C(=O)Nc2cc(Oc3ccc(NC(=S)NC(=O)Cc4ccccc4)cc3F)ccn2)CC1 [Example 28, 3-{4-[2-Fluoro-4-(3-phenylacetylthioureido)phenoxy]pyridin-2-yl}-1-methyl-1-(1-methylpiperidin-4-yl)urea]"
0.078 µM,–,"CN1CCCN(C(=O)Nc2cc(Oc3ccc(NC(=O)CC(=O)Nc4ccc(F)cc4)c(F)c3)ccn2)CC1 [Example 92, N-(2-Fluoro-4-{2-[(4-methyl-[1,4]diazepane-1-carbonyl)amino]pyridin-4-yloxy}phenyl)-N′-(4-fluorophenyl)malonamide]"
0.19 µM,–,"CN1CCN(C(=O)Nc2cc(Oc3ccc(NC(=O)NC(=O)Cc4ccccc4)cc3F)ccn2)CC1 [Example 50, 4-Methylpiperazine-1-carboxylic acid {4-[2-fluoro-4-(3-phenylacetylureido)phenoxy]pyridin-2-yl}amide]"
0.091 µM,–,"O=C(Cc1ccccc1)NC(=O)Nc1ccc(Oc2ccnc(NC(=O)N3CCC(N4CCCC4)CC3)c2)c(F)c1 [Example 45, 4-{2-Fluoro-4-[3-(2-phenylacetyl)ureido]phenoxy}-2-{[4-(pyrrolidin-1-yl)piperidin-1-yl]carbonylamino}pyridine]"
0.083 µM,–,"O=C(Cc1ccccc1)NC(=O)Nc1ccc(Oc2ccnc(NC(=O)N3CCCC3)c2)c(F)c1 [Example 43, 4-{2-Fluoro-4-[3-(2-phenylacetyl)ureido]phenoxy}-2-[(pyrrolidin-1-yl)carbonylamino]pyridine]"
0.11 µM,–,"CCN(CC)CCCN(C)C(=O)Nc1cc(Oc2ccc(NC(=S)NC(=O)Cc3ccc(F)cc3)cc2F)ccn1 [Example 22, 1-(3-Diethylaminopropyl)-3-[4-(2-fluoro-4-{3-[2-(4-fluorophenyl)acetyl]thioureido}phenoxy)pyridin-2-yl]-1-methylurea]"
0.066 µM,–,"O=C(CC(=O)Nc1ccc(Oc2ccnc(NC(=O)N3CCC(N4CCCC4)CC3)c2)cc1F)Nc1ccc(F)cc1 [Example 82, N-(4-Fluorophenyl)-N′-[2-fluoro-4-(2-{[4-(pyrrolidin-1-yl)piperidine-1-carbonyl]amino}pyridin-4-yloxy)phenyl]malonamide]"
0.045 µM,–,"CN(C)C(=O)Nc1cc(Oc2ccc(NC(=O)NC(=O)Cc3ccccc3)cc2F)ccn1 [Example 44, 2-[(Dimethylamino)carbonylamino]-4-{2-fluoro-4-[3-(2-phenylacetyl)ureido]phenoxy}pyridine]"
0.064 µM,–,"CN(C)C(=O)Nc1cc(Oc2ccc(NC(=S)NC(=O)CC3CC4CCC3C4)cc2F)ccn1 (stereo not drawn) [Example 17, 2-[(Dimethylamino)carbonylamino]-4-{2-fluoro-4-[3-(2-norbornaneacetylthio)ureido]phenoxy}pyridine]"
< 0.03 µM,–,"O=C(Cc1ccccc1)NC(=S)Nc1ccc(Oc2ccnc(NC(=O)N3CCC(O)CC3)c2)c(F)c1 [Example 15, 4-{2-Fluoro-4-[3-(2-phenylacetyl)thioureido]phenoxy}-2-[(4-hydroxypiperidin-1-yl)carbonylamino]pyridine]"
0.038 µM,–,"CN1CCC(N(C)C(=O)Nc2cc(Oc3ccc(NC(=O)CC(=O)Nc4ccc(F)cc4)cc3F)ccn2)CC1 [Example 89, N-(3-Fluoro-4-{2-[3-methyl-3-(1-methylpiperidin-4-yl)ureido]pyridin-4-yloxy}phenyl)-N′-(4-fluorophenyl)malonamide]"
